Read-outs that look alike come from different tables or passages of the source.
How the values were obtained:
[1] = system: CT26 tumor cells; test: Murine CT-26 colon tumor model, two flanks; 800 μg 4-arm-PEG20k-CM-N-R848 intra-/peritumorally day 0, RSLAIL-2 0.8 mg/kg i.v. days 0, 9, 18; assay type: in vivo, Balb/c mice
[2] = system: bilateral CT26 subcutaneous tumors
[3] = system: TLR7/8; test: TLR7/8-dependent cytokine production in plasma after single 10 μg intratumoral administration, CT26 tumor bearing mice; assay type: in vivo, Balb/c mice
Procedure: Hank's Balanced Salt Solution) was administered intratumorally to Balb/c mice bearing CT26 tumor. […] (Conjugate doses and concentrations are expressed based on TLR 7/8 agonist (e.g., resiquimod or other TLR 7/8 agonist) content, wherein the mass of the TLR 7/8 agonist is expressed independent of PEG mass). Plasma was collected at pre-determined time points for analysis of level of IFN-gamma, IL-2, IL-4, IL5, IL-6, IL-1 beta, IL-10, IL-12p70, KC/GRO, TNF-alpha, and IFN-alpha. For assessing IFN-gamma, IL-2, IL-4, IL5, IL-6, IL-1 beta, IL-10, IL-12p70, KC/GRO, and TNF alpha, an electrochemiluminescence assay was performed on duplicate samples using capture antibody precoated 96 well multispot plates from Meso Scale Discovery (MSD; Gaithersburg, Md., US). […] Plates were immediately read using SECTOR Imager 2400 and data was quantitated using Discovery Workbench software version 4.0 (MSD, Gaithersburg, Md., US). Mouse IFN alpha was measured with the Verikine mouse Interferon-Alpha ELISA kit (PBL, Piscataway, N.J., USA), according to the instructions of the manufacturer. After the addition of a stop solution, the absorbance at 450 nm was determined using BioTek μQuant microplate reader (Biotek; Winooski, Vt., USA). The ELISA data was quantitated using Biotek Gen5 software (Biotek; Winooski, Vt., USA). Data are represented as the mean of the fold-change of replicates.

[4] = system: EMT6 tumor cells
Description: In vivo model: Mice used were ˜10 weeks old female Balb/c strain with 2 million EMT6 tumor cells implanted on each flank. Cells were allowed to mature into tumors for 7 days reaching a volume of 75-150 mm^3 volume.
Measurements: Tumor volumes were collected by caliper measurements 2-3 times per week and calculated using formula: L×W^2/2 where L is tumor length and W is tumor width.

[5] = system: TLR7 pathway; conditions: 2 hours and 6 hours following treatment with Compound 6
Procedure: Cytokine analysis (in CT26 tumor-bearing mice): Tumor and plasma samples were obtained at multiple time points following administration for cytokine analysis. RNA was isolated from treated tumors to assess induction of type I interferon- and NFκB-dependent gene expression. A panel of pro-inflammatory cytokines was measured from tumor tissue and plasma by multiplex protein measurement assay.

[6] = molecular target: T1, hTLR7 (Homo sapiens, UniProt Q9NYK1); test: SEAP reporter gene assay in HEK293 cells stably transfected with human TLR receptor; assay type: cell-based; conditions: downstream hTLR7 and hTLR8
T1 construct: expressed in transfected cells; host or cells: HEK293
T1 sequence (Q9NYK1 27-1049): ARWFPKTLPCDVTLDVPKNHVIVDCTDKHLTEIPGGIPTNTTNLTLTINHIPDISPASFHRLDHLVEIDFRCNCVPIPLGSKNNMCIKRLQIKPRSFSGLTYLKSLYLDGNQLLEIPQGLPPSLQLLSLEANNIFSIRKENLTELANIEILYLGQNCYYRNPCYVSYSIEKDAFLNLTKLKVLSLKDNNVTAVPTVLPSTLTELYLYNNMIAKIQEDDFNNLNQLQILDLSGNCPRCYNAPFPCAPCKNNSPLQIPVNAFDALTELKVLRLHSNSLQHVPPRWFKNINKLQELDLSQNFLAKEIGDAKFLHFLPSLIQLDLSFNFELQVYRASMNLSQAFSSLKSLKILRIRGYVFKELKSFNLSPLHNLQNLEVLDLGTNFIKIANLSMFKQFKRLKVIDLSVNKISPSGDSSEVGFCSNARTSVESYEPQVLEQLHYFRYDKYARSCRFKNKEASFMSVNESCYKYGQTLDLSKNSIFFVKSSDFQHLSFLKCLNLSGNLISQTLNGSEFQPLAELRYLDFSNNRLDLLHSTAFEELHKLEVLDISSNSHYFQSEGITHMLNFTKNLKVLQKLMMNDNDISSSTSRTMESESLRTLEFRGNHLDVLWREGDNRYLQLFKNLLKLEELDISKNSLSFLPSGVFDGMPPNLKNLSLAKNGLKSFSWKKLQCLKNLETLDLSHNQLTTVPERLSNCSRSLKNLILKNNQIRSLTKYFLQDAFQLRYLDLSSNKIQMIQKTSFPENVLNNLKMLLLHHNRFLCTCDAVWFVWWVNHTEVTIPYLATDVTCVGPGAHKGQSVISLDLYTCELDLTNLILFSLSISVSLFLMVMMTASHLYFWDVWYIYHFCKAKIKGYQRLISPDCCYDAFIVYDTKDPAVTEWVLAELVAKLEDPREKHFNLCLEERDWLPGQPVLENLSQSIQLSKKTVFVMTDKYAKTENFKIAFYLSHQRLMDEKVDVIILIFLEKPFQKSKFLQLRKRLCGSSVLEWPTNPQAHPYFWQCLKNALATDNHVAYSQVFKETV
Description: Parental cell lines (Null1 and Null1K, stably transfected with the SEAP reports but without hTLR receptor expression) were used as negative controls.

[7] = system: proinflammatory cytokines IFNα, IFNγ, TNFα, IL-6 and IL-12; test: Plasma cytokine induction after Compound 6 or resiquimod with staggered RSLAIL-2 in CT26 model; assay type: in vivo, Balb/c mice
Procedure: The concentration of proinflammatory cytokines IFNα, IFNγ, TNFα, IL-6 and IL-12 was determined in plasma by multiplex protein measurement assay at indicated time points post dose.

[8] = 2 hours after single 10 μg intratumoral administration
[9] = 6 hours after single 10 μg intratumoral administration
[10] = plasma, 10 μg intra/peritumoral

4-arm-PEG20k-CM-N—R848 [Compound 1]
Survival Proportions ([1]; day 0 after treatment start): 100%
Survival Proportions ([1]; day 12 after treatment start): 80%
Survival Proportions ([1]; day 16 after treatment start): 70%
Survival Proportions ([1]; day 19 after treatment start): 40%
Survival Proportions ([1]; day 21 after treatment start): 30%
Survival Proportions ([1]; day 47 after treatment start (end of experiment)): 30%
animals with a complete response (both treated and untreated side tumors eliminated) ([1]; end of experiment, day 47): 20%
animals with a partial response (one of the two tumors eradicated) ([1]; end of experiment, day 47): 10%

4-arm-PEG20k-CM-glycine-N-R848 [Compound 6]
CD8+ T cells in tumors ([2]; after combination treatment with RSLAIL-2 (0.8 mg/kg i.v. four days after Compound 6), day 7): selective Compound 6-dose dependent increase
relative fraction of regulatory T cells in tumors ([2]; after combination treatment with RSLAIL-2, day 7): decreased dramatically
CD8:Treg ratio in the blood ([2]; both treatment groups (10 μg or 0.1 μg) after RSLAIL-2): overall reduction
intratumoral neutrophils in treated tumors ([2]; one day after treatment, 10 μg dose): increase in intratumoral neutrophils
IFNa fold change (treated/vehicle) [3, 8]: + (+<50)
IL6 fold change (treated/vehicle) [3, 8]: ++ (50≤++<200)
IL12 fold change (treated/vehicle) [3, 8]: + (+<50)
KC/GRO fold change (treated/vehicle) [3, 8]: + (+<50)
TNFa fold change (treated/vehicle) [3, 8]: + (+<50)
IFNg fold change (treated/vehicle) [3, 9]: +++ (10≤+++<20)
IL10 fold change (treated/vehicle) [3, 9]: + (+<5)
Survival Proportions ([4]; day 0 after treatment start): ++++ (75%≤++++<100%)
Survival Proportions ([4]; day 3 after treatment start): ++++ (75%≤++++<100%)
Survival Proportions ([4]; day 8 after treatment start): ++++ (75%≤++++<100%)
Survival Proportions ([4]; day 13 after treatment start): ++++ (75%≤++++<100%)
Survival Proportions ([4]; day 15 after treatment start): ++++ (75%≤++++<100%)
Survival Proportions ([4]; day 20 after treatment start): +++ (50%≤+++<75%)
Survival Proportions ([4]; day 27 after treatment start): ++ (25%≤++<50%)
Survival Proportions ([4]; day 34 after treatment start): + (0%≤+<25%)
Survival Proportions ([4]; day 42 after treatment start): + (0%≤+<25%)
Survival Proportions ([4]; day 48 after treatment start): + (0%≤+<25%)
Survival Proportions ([4]; day 55 after treatment start): none
survival of the animals ([4]; end of the study at day 55 after commencement of dosing): no surviving animals
concentration of systemic cytokines compared with tumor (IL-6, KC/GRO, TNF-α, IL-1β, IL-5, IFN-α, IFN-γ, IL-2, IL-12p70) [5]: significantly less than that in the tumor
fold higher concentration for reporter activation compared to resiquimod [6]: > 20 fold
induction of cytokines in plasma, in words ([7]; 1 μg single intra/peritumoral dose): very modest induction of all cytokines in plasma
pro-inflammatory cytokine induction in blood, in words ([7]; 10 μg single intra/peritumoral dose): robust pro-inflammatory cytokine induction in blood
time of peak level of IFN-γ [7, 10]: 6 h
time of peak levels of IFNα, TNFα, IL-6 and IL-12 [7, 10]: 2 h
